# Measurements from US9648876B2, “Method of inhibiting biofilm formation” (Research Foundation of the City University of New York, priority 2015, dated 2017).
# Where two headings read alike, the source gives them in different places.
# What was measured:
# [1] = system: C. albicans early biofilms; assay type: cell-based, Candida albicans; settings: fluconazole at 32 μg per ml, FIG. 3
# Procedure: (§1) Candida albicans was subcultured onto Sabouraud dextrose agar (per liter: peptone 10 g, dextrose 40 g, agar 15 g; pH of 5.6) and incubated at 30° C. for 24 h. One colony was then added to yeast extract-peptone-dextrose (YPD; 1% yeast extract, 2% peptone, 2% dextrose) and incubated with shaking at 30° C. and 170 rpm for 16 h, after which cells were harvested, washed in phosphate-buffered saline (PBS), and diluted to a standard inoculum of 1.0×10^6 cells per ml.
# For biofilm assays in microtiter plates, 100 μl of a standard inoculum of C. albicans cells (1.0×10^6 cells per ml) was added to the wells of a 96-well plate in triplicate, and the cells were allowed to adhere for 90 min at 37° C. After incubation, the plates were washed twice with PBS to remove nonattached cells. Then 100 μl of RPMI 1640 with L-glutamine, without sodium bicarbonate (GIBCO®), buffered to pH 7.0 with 165 mM morpholinepropanesulfonic acid (MOPS) was added to each well, and the plates were incubated at 37° C. for 24 h. […]
# Menadione and XTT [2,3-bis-(2-methoxy-4-nitro-5-sulfophenyl)-2H-tetrazolium-5-carboxyanilide] were obtained from Sigma-Aldrich. […] The absorbance of wells at 490 nm was read using a microplate reader (Biotec/Synergy software). […]
# Biofilm viability was assayed by XTT reduction and calculated as follows: […]
# [2] = system: C. albicans mature biofilms; experiment: Established (mature, 24-h) biofilm susceptibility (XTT reduction, LIVE/DEAD confocal microscopy)
# Procedure: LIVE/DEAD staining of the biofilm was performed and dead cells were quantified in confocal micrographs.
# as §1
# For biofilm assays in microtiter plates, 100 μl of a standard inoculum of C. albicans cells (1.0×10^6 cells per ml) was added to the wells of a 96-well plate in triplicate, and the cells were allowed to adhere for 90 min at 37° C. After incubation, the plates were washed twice with PBS to remove nonattached cells. Then 100 μl of RPMI 1640 with L-glutamine, without sodium bicarbonate (GIBCO®), buffered to pH 7.0 with 165 mM morpholinepropanesulfonic acid (MOPS) was added to each well, and the plates were incubated at 37° C. for 24 h. Early-stage biofilms were prepared essentially as above, with the exception that the cells were induced to form biofilms for either 3 or 6 h prior to treatment.
# Fluconazole was obtained from Sigma. All drugs were dissolved in dimethyl sulfoxide (DMSO).
# Menadione and XTT [2,3-bis-(2-methoxy-4-nitro-5-sulfophenyl)-2H-tetrazolium-5-carboxyanilide] were obtained from Sigma-Aldrich. After a drug challenge, the wells were washed twice with PBS, and then 100 μl of XTT-menadione solution was added to the wells, and plates incubated in the dark for 1 h at 37° C. The absorbance of wells at 490 nm was read using a microplate reader (Biotec/Synergy software).
# Candida albicans biofilms were treated with or without test compounds for various times, depending on the experimental design, after which the cells were prepared for microscopy by staining with the BacLight yeast viability kit, the contents of which include Syto-9 and propidium iodide (Molecular Probes, Eugene, Oreg.) according to the manufacturer's instructions. Confocal images were obtained using an Olympus FluoView10i microscope and a filter set for Syto-9 and propidium iodide. Overlays included phase contrast images. All confocal images were processed using ImageJ.
# Biofilm viability was assayed by XTT reduction and calculated as follows:
# [formula] where background wells contained XTT solution only; untreated wells received cells only, with no added drug.
# [3] = system: C. albicans DAY185 planktonic cells; experiment: Planktonic cell growth and viability; assay type: cell-based, Candida albicans; settings: 0.06 μg per ml
# Procedure: Small arrows (FIG. 1B and FIG. 1C) denote chains of yeast cells. Note the microcolonies apparent in the control culture at 3 hours (FIG. 2B) and 9 hours (FIG. 2C) denoted by the large arrows. […] Under these conditions, some yeast cells formed short linear chains, but there were few germ tubes, and the culture never developed true hyphae. […] When germ tubes were allowed to emerge before treatment with xanthochymol, the germ tubes elongated and branched for several hours. In contrast, when C. albicans DAY185 planktonic cells were grown in YPD in the presence or absence of either Garcinia benzophenone (70 μg per ml), there was no significant effect on the growth or viability.
# [4] = target: histone acetyltransferase (HAT) p300 (Homo sapiens, UniProt Q09472); settings: cited from earlier work
# Chain of histone acetyltransferase (HAT) p300 (Q09472 whole entry): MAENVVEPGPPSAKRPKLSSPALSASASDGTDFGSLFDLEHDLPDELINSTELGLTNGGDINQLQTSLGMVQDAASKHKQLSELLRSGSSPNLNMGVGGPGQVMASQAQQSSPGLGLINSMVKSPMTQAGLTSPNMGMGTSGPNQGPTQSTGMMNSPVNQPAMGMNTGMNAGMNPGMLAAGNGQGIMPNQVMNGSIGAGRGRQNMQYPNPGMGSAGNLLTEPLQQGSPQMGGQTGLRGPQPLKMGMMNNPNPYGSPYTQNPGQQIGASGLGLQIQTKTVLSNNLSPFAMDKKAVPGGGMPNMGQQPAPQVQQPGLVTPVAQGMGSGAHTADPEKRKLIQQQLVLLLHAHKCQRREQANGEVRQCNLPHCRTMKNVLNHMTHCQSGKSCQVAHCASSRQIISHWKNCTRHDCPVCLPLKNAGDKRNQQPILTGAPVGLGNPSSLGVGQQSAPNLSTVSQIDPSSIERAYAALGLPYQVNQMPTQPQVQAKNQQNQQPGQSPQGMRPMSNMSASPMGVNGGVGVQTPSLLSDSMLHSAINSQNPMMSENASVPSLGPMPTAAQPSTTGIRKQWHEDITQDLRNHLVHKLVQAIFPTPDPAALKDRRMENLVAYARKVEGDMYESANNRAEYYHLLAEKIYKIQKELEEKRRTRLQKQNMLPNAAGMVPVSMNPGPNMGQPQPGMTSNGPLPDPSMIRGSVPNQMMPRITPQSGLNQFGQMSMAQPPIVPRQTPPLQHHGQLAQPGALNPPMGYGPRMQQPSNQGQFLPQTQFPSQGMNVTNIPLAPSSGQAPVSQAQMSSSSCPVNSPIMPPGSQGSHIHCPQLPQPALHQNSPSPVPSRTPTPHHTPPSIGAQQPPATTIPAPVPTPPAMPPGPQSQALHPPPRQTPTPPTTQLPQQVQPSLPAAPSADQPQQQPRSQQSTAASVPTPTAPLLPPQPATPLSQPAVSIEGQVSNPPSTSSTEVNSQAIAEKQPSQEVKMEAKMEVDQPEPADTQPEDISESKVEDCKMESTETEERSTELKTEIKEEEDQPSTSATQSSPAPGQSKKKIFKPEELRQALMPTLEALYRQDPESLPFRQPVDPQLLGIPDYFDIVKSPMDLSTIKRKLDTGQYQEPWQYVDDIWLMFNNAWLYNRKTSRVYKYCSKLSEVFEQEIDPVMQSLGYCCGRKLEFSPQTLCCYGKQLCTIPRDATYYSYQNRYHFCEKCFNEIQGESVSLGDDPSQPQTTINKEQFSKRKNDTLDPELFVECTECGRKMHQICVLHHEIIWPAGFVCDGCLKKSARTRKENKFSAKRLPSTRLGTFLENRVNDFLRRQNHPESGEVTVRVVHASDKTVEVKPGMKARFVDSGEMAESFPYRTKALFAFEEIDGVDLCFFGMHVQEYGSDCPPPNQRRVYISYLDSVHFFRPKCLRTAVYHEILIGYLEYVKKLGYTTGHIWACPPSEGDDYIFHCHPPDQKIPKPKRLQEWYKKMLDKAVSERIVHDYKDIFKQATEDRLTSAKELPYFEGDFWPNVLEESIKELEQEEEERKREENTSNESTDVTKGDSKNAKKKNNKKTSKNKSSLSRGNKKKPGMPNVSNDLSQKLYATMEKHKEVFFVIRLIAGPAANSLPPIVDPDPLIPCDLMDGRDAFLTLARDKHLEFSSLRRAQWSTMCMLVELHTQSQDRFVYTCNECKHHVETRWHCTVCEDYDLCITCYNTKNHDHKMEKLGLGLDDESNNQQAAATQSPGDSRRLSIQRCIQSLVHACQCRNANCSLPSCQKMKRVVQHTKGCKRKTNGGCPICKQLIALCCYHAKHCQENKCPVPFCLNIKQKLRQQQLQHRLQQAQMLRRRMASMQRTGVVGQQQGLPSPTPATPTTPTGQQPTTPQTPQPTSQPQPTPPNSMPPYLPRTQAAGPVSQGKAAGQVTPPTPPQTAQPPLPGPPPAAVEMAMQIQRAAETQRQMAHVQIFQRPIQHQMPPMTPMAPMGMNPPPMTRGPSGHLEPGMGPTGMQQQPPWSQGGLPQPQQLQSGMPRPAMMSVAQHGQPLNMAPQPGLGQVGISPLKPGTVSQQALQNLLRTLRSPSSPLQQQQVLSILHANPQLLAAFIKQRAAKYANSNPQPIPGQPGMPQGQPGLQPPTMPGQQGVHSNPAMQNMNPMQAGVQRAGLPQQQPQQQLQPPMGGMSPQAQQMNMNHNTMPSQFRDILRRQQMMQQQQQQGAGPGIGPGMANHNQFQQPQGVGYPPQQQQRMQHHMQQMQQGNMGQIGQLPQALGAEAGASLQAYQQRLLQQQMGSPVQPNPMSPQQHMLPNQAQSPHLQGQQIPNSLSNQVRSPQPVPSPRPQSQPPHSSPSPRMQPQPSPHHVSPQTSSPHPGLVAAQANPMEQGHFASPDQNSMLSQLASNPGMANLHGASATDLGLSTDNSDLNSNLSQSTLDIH
# pCAF = pCAF (Homo sapiens, UniProt Q92831); settings: cited from earlier work
# Chain of pCAF (Q92831 whole entry, species assumed): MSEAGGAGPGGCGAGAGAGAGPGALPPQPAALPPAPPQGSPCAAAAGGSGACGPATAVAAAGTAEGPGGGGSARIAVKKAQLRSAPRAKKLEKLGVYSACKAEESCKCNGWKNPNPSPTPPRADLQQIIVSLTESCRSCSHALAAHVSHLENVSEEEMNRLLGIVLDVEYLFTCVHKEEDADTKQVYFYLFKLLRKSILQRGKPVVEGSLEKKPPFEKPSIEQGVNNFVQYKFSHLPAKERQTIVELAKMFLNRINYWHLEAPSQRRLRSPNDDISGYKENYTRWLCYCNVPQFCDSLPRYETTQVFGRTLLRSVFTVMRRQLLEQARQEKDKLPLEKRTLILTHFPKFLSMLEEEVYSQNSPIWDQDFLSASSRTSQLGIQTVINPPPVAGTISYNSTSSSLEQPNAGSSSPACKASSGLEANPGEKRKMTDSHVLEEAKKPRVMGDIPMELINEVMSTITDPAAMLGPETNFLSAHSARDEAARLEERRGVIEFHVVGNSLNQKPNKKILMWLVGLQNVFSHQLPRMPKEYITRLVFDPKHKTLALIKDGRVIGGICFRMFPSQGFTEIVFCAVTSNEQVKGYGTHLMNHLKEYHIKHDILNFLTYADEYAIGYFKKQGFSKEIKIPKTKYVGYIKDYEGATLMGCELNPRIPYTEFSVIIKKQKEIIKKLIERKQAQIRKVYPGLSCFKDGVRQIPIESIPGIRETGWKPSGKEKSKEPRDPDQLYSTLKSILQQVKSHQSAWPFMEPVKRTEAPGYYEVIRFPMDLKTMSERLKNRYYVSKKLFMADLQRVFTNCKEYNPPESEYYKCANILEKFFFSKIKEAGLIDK
smiles,measurement,setting,value
OC(Cn1cncn1)(Cn1cncn1)c1ccc(F)cc1F [fluconazole],reduction of biofilm activity,[1],20%
same,killing of biofilm cells by microscopy,"[2]; 24-h biofilms, 24 h of exposure, confocal LIVE/DEAD",minimal effect
same,reduction in viability,"[2]; 24-h biofilms, fluconazole as high as 1,024 μg per ml, XTT assay",15%
same,IC50,"[2]; Candida albicans, 24 h, read-out: fluconazole IC50",13 µg/mL
same,EC50,"[2]; Candida albicans, read-out: fluconazole EC50, mature biofilms, fluconazole alone",> 1020 µg/mL
same,EC50,"[2]; Candida albicans, read-out: fluconazole EC50, mature biofilms, with xanthochymol",13 µg/mL
CC[C@H](C)C[C@H](C)CCCCCCCCC(=O)N[C@H]1C[C@@H](O)[C@@H](NCCN)NC(=O)[C@@H]2[C@@H](O)CCN2C(=O)[C@H]([C@H](O)CCN)NC(=O)[C@H]([C@H](O)[C@@H](O)c2ccc(O)cc2)NC(=O)[C@@H]2C[C@@H](O)CN2C(=O)[C@H]([C@@H](C)O)NC1=O [caspofungin],killing of planktonic yeast phase cells,[3],showed killing
same,killing of biofilm (positive control),[2]; 0.06 μg per ml,less effective against a biofilm
C=C(C)CC[C@@H](C[C@@]12C[C@@H](CC=C(C)C)C(C)(C)[C@@](CC=C(C)C)(C(=O)C(C(=O)c3ccc(O)c(O)c3)=C1O)C2=O)C(=C)C [garcinol],inhibition of HAT p300,[4],micromolar concentrations
same,inhibition of pCAF,pCAF,micromolar concentrations
